Reference: PMC1198236, “β-adrenergic receptor activation in immortalized human urothelial cells stimulates inflammatory responses by PKA-independent mechanisms” (Cell communication and signaling : CCS, 2005)

Biological target: β-adrenergic receptor (β-AR; subtype not determined)

- Kd: 0.0324 ± 0.0011 nM
Compound: CC(C)(C)NC[C@H](O)COc1cccc2[nH]c(C#N)c(I)c12 [125I-CYP, (-)3-[125I]iodocyanopindolol]
